Data: patent publication US10899737B2, “Piperazine carbamates and methods of making and using same” (Lundbeck La Jolla Research Center, Inc., priority 2016, dated 2021)

Legend:
MAGL [1] = target: T1, MAGL (Mus musculus, UniProt O35678); experiment: Mouse brain proteomes from inhibitor treated mice, MAGL inhibition; assay type: in vivo; details: 5 mg/kg oral gavage, C57Bl/6J mouse brain, 4 h following administration; read-out: MAGL % inh. 5 mg/kg (mouse)
T1 construct: Proteomes (mouse brain membrane fraction or cell lysates); from tissue; host or cells: mouse brain membrane fraction or cell lysates
T1 sequence (O35678 1-303): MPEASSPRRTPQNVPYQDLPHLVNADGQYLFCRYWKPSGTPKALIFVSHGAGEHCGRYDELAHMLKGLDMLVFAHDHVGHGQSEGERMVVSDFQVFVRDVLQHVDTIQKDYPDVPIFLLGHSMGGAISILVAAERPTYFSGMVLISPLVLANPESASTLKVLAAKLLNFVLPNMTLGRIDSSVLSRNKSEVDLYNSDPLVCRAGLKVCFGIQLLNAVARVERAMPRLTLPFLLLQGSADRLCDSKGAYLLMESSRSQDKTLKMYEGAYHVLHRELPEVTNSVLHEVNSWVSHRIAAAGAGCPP
Protocol: Preparation of Mouse Brain Proteomes from Inhibitor Treated Mice.
Inhibitors were administered to wild-type C57Bl/6J by oral gavage in a vehicle of polyethylene glycol. Each animal was sacrificed 4 h following administration and brain proteomes were prepared and analyzed according to previously established methods (See Niphakis, M. J., et al. (2011) ACS Chem. Neurosci. and Long, J. Z., et al. Nat. Chem. Biol. 5:37-44).

ABHD6 [2] = target: T2, ABHD6 (Mus musculus, UniProt Q8R2Y0); experiment: In vitro competitive activity-based protein profiling (mouse), ABHD6; assay type: biochemical; details: 1 μM inhibitor, mouse brain membrane fraction or cell lysates; read-out: ABHD6 % inh. 1 μM (mouse)
T2 construct: Proteomes (mouse brain membrane fraction or cell lysates); from tissue; host or cells: mouse brain membrane fraction or cell lysates
T2 sequence (Q8R2Y0 1-336): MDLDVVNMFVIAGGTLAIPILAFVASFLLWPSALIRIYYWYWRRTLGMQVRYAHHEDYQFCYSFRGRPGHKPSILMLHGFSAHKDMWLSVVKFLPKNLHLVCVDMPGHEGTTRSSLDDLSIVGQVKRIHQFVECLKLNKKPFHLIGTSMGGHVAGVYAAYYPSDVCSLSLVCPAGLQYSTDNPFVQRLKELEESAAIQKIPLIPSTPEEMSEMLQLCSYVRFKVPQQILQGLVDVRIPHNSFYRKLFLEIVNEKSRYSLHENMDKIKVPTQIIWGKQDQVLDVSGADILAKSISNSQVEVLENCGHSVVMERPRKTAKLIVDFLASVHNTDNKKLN
Protocol: (§1) In Vitro Competitive Activity-Based Protein Profiling (Mouse).
(§2) Proteomes (mouse brain membrane fraction or cell lysates) (50 μL, 1.0 mg/mL total protein concentration) were preincubated with varying concentrations of inhibitors at 37° C. After 30 min, FP-Rh (1.0 μL, 50 μM in DMSO) was added and the mixture was incubated for another 30 min at 37° C. Reactions were quenched with SDS loading buffer (50 μL-4×) and run on SDS-PAGE. Following gel imaging, serine hydrolase activity was determined by measuring fluorescent intensity of gel bands corresponding to MAGL and ABHD6 using ImageJ 1.49 k software. Data from this assay is shown in Table 1 (% inhibition at 1 μM).

MAGL [3] = target: T1, MAGL; experiment: In vitro competitive activity-based protein profiling (mouse), MAGL; assay type: biochemical; details: for inhibition at 1 µM: 1 μM inhibitor, mouse brain membrane fraction or cell lysates, read-out: MAGL % inh. 1 μM (mouse); for IC50: mouse proteome
Protocol: as §1, §2

MAGL [4] = target: T3, MAGL (Homo sapiens, UniProt Q99685); experiment: In vitro competitive activity-based protein profiling (human), MAGL; assay type: biochemical; details: for inhibition at 1 µM: 1 μM inhibitor, human proteome, 30 min preincubation at 37° C, read-out: MAGL % inh. 1 μM (human); for IC50: human PC3
T3 construct: Proteomes (human prefrontal cortex or cell membrane fractions); from tissue
T3 sequence (Q99685 1-303): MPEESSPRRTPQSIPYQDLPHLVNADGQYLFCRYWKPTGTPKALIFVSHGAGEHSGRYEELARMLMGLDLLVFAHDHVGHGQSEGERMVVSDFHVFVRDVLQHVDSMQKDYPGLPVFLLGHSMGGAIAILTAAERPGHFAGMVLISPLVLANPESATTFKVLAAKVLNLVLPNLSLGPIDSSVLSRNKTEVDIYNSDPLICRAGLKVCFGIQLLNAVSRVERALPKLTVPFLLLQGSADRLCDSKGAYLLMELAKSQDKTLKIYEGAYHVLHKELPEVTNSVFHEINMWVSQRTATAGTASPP
Protocol: (§3) In Vitro Competitive Activity-Based Protein Profiling (Human).
(§4) Proteomes (human prefrontal cortex or cell membrane fractions) (50 μL, 1.0-2.0 mg/mL total protein concentration) were preincubated with varying concentrations of inhibitors at 37° C. After 30 min, FP-Rh or JW912 (1.0 μL, 50 μM in DMSO) was added and the mixture was incubated for another 30 min at room temperature. Reactions were quenched with SDS loading buffer (15 μL-4×) and run on SDS-PAGE. Following gel imaging, serine hydrolase activity was determined by measuring fluorescent intensity of gel bands corresponding to MAGL and ABHD6 using ImageJ 1.49 k software.

ABHD6 [5] = target: T4, ABHD6 (Homo sapiens, UniProt Q9BV23); experiment: In vitro competitive activity-based protein profiling (human), ABHD6; assay type: biochemical; details: human PC3
T4 construct: Proteomes (human prefrontal cortex or cell membrane fractions); endogenous in cells; human prefrontal cortex
T4 sequence (Q9BV23 1-337): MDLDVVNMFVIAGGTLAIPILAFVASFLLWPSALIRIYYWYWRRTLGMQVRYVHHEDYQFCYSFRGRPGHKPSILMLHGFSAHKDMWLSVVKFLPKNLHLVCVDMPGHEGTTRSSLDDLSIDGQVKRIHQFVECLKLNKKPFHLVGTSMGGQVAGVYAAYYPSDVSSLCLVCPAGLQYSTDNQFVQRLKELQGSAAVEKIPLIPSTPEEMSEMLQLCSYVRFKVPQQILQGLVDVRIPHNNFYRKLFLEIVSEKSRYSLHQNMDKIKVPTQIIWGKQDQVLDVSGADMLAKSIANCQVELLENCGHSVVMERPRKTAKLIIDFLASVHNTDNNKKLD
Protocol: as §3, §4

| Structure (SMILES) | inhibition at 5 mg/kg (MAGL [1]) [%] | inhibition at 1 µM (ABHD6 [2]) [%] | inhibition at 1 µM (MAGL [3]) [%] | inhibition at 1 µM (MAGL [4]) [%] | IC50 (MAGL [4]) [µM] | IC50 (ABHD6 [5]) [µM] | IC50 (MAGL [3]) [µM] |
| --- | --- | --- | --- | --- | --- | --- | --- |
| O=C(OC(C(F)(F)F)C(F)(F)F)N1CCN(Cc2ccc(C(F)(F)F)cc2C2(C(=O)O)CCCC2)CC1 [Example 4, 1-(2-((4-(((1,1,1,3,3,3-Hexafluoropropan-2-yl)oxy)carbonyl)piperazin-1-yl)methyl)-5-(trifluoromethyl)phenyl)cyclopentane-1-carboxylic Acid] | ≥ 75 | 0 to 25 | ≥ 75 | ≥ 75 | ≤ 0.1 | 1 to 10 | ≤ 0.1 |
| O=C(O)C1COCCN1c1cc(CN2CCN(C(=O)OC(C(F)(F)F)C(F)(F)F)CC2)cc(C(F)(F)F)c1 (stereo not shown) [Example 68, 4-(3-((4-(((1,1,1,3,3,3-hexafluoropropan-2-yl)oxy)carbonyl)piperazin-1-yl)methyl)-5-(trifluoromethyl)phenyl)morpholine-3-carboxylic acid] |  | ≥ 75 | ≥ 75 | ≥ 75 | ≤ 0.1 | 0.1 to 1 |  |
| N#Cc1ccc(CN2CCN(C(=O)OC(C(F)(F)F)C(F)(F)F)CC2)c(N2CCC(C(=O)O)CC2)c1 [Example 69, 1-(5-cyano-2-((4-(((1,1,1,3,3,3-hexafluoropropan-2-yl)oxy)carbonyl)piperazin-1-yl)methyl)phenyl)piperidine-4-carboxylic acid] |  | 0 to 25 | ≥ 75 | ≥ 75 | ≤ 0.1 | 0.1 to 1 |  |
| O=C(O)C1COCCN1c1cc(C(F)(F)F)ccc1CN1CCN(C(=O)OC(C(F)(F)F)C(F)(F)F)CC1 (stereo not shown) [Example 71, 4-(2-((4-(((1,1,1,3,3,3-hexafluoropropan-2-yl)oxy)carbonyl)piperazin-1-yl)methyl)-5-(trifluoromethyl)phenyl)morpholine-3-carboxylic acid] |  | 0 to 25 | ≥ 75 | ≥ 75 | 0.1 to 1 | 1 to 10 |  |
| O=C(O)C1CCN(c2cc(C(F)F)ccc2CN2CCN(C(=O)OC(C(F)(F)F)C(F)(F)F)CC2)CC1 [Example 72, 1-(5-(difluoromethyl)-2-((4-(((1,1,1,3,3,3-hexafluoropropan-2-yl)oxy)carbonyl)piperazin-1-yl)methyl)phenyl)piperidine-4-carboxylic acid] |  | ≥ 75 | ≥ 75 | ≥ 75 | ≤ 0.1 | 1 to 10 |  |
| O=C(O)C1CCN(c2cc(F)ccc2CN2CCN(C(=O)OC(C(F)(F)F)C(F)(F)F)CC2)CC1 [Example 73, 1-(5-fluoro-2-((4-(((1,1,1,3,3,3-hexafluoropropan-2-yl)oxy)carbonyl)piperazin-1-yl)methyl)phenyl)piperidine-4-carboxylic acid] |  | 50 to 75 | ≥ 75 | ≥ 75 | ≤ 0.1 | 1 to 10 |  |
| O=C(O)[C@H]1CCCN(c2cc(C(F)(F)F)ccc2CN2CCN(C(=O)OC(C(F)(F)F)C(F)(F)F)CC2)C1 [Example 80, (S)-1-(2-((4-(((1,1,1,3,3,3-hexafluoropropan-2-yl)oxy)carbonyl)piperazin-1-yl)methyl)-5-(trifluoromethyl)phenyl)piperidine-3-carboxylic acid] |  | 25 to 50 | ≥ 75 | ≥ 75 | ≤ 0.1 | 0.1 to 1 |  |
| O=C(O)[C@H]1CCCN(c2cc(CN3CCN(C(=O)OC(C(F)(F)F)C(F)(F)F)CC3)cc(C(F)(F)F)c2)C1 [Example 81, (S)-1-(3-((4-(((1,1,1,3,3,3-hexafluoropropan-2-yl)oxy)carbonyl)piperazin-1-yl)methyl)-5-(trifluoromethyl)phenyl)piperidine-3-carboxylic acid] |  | ≥ 75 | ≥ 75 | ≥ 75 | ≤ 0.1 | 0.1 to 1 |  |

Continued, values first:

| inhibition at 5 mg/kg (MAGL [1]) [%] | inhibition at 1 µM (ABHD6 [2]) [%] | inhibition at 1 µM (MAGL [3]) [%] | inhibition at 1 µM (MAGL [4]) [%] | IC50 (MAGL [4]) [µM] | IC50 (ABHD6 [5]) [µM] | IC50 (MAGL [3]) [µM] | Structure (SMILES) |
| --- | --- | --- | --- | --- | --- | --- | --- |
| 50 to 75 | 0 to 25 | ≥ 75 | ≥ 75 | ≤ 0.1 | 1 to 10 |  | O=C(O)CN1CCC(c2cc(C(F)(F)F)ccc2CN2CCN(C(=O)OC(C(F)(F)F)C(F)(F)F)CC2)C1 (stereo not shown) [Example 2, 2-(3-(2-((4-(((1,1,1,3,3,3-Hexafluoropropan-2-yl)oxy)carbonyl)piperazin-1-yl)methyl)-5-(trifluoromethyl)phenyl)pyrrolidin-1-yl)acetic Acid] |
| 0 to 25 | ≥ 75 | ≥ 75 | ≥ 75 | ≤ 0.1 | 0.1 to 1 | ≤ 0.1 | O=C(O)Cn1ccc(-c2cc(C(F)(F)F)ccc2CN2CCN(C(=O)OC(C(F)(F)F)C(F)(F)F)CC2)n1 [Example 3, 2-(3-(2-((4-(((1,1,1,3,3,3-Hexafluoropropan-2-yl)oxy)carbonyl)piperazin-1-yl)methyl)-5-(trifluoromethyl)phenyl)-1H-pyrazol-1-yl)acetic Acid] |
| 0 to 25 | ≥ 75 | ≥ 75 | ≥ 75 | ≤ 0.1 | 0.1 to 1 |  | CCC(C(=O)O)n1cc(-c2cc(C(F)(F)F)ccc2CN2CCN(C(=O)OC(C(F)(F)F)C(F)(F)F)CC2)cn1 (stereo not shown) [Example 5, 2-(4-(2-((4-(((1,1,1,3,3,3-Hexafluoropropan-2-yl)oxy)carbonyl)piperazin-1-yl)methyl)-5-(trifluoromethyl)phenyl)-1H-pyrazol-1-yl)butanoic Acid] |
| 0 to 25 | ≥ 75 | ≥ 75 | ≥ 75 | ≤ 0.1 | 1 to 10 | ≤ 0.1 | O=C(O)Cn1cc(-c2cc(C(F)(F)F)ccc2CN2CCN(C(=O)OC(C(F)(F)F)C(F)(F)F)CC2)cn1 [Example 6, 2-(4-(2-((4-(((1,1,1,3,3,3-Hexafluoropropan-2-yl)oxy)carbonyl)piperazin-1-yl)methyl)-5-(trifluoromethyl)phenyl)-1H-pyrazol-1-yl)acetic Acid] |
| 25 to 50 | 0 to 25 | ≥ 75 | ≥ 75 |  |  | ≤ 0.1 | O=C(O)CN1CCN(c2cc(C(F)(F)F)ccc2CN2CCN(C(=O)OC(C(F)(F)F)C(F)(F)F)CC2)CC1 [Example 42] |
